Source: patent US20180353445A1, “METHODS AND COMPOSITIONS RELATING TO PROTEASOME INHIBITOR RESISTANCE” (Whitehead Institute for Biomedical Research, priority 2017, published 2018)
Entries after “also recorded” stand apart in the source; their conditions may differ.

Experiments:
Assay type in all cases: cell-based, human
T47D cells [1] = experiment: Competition co-culture of TurboRFP PSMD2 shRNA and GFP control shRNA T47D cells, FACS/microscopy; details: 1:10 plating ratio, panel of proteasome inhibitors
Protocol: We created two cell lines—one line that expresses red fluorescent protein (turboRFP) and the doxycycline-inducible PSMD2-targeting shRNA and another line that expresses green fluorescent protein (GFP) and a doxycycline-inducible control shRNA (FIG. 6A). First, we induced shRNA expression with doxycycline for 48 hours. After recovery, we mixed shPSMD2-RFP and shControl-GFP cells at different ratios (either 1:1, 1:2, 1:5 or 1:10), adding the cells with reduced PSMD2 as the minority subpopulation. Twenty-four hours after plating, we treated these mixed populations of cells for 48 hours with increasing concentrations of bortezomib (5, 7.5 or 10 nM). We allowed the cells to recover in the absence of bortezomib and then we quantified the red and green cells by FACS analysis (FIG. 6A) and captured representative images by fluorescence microscopy (FIG. 6B),
The experiment described in Example 10 was repeated with minor differences using a panel of different proteasome inhibitors: MLN2238, MLN9708, and oprozomib T47D cells harboring a doxycycline inducible control shRNA (GFP) or a doxycycline-inducible PSMD2 shRNA (TurboRFP) were incubated with doxycycline for 3 days. Cells were collected, counted, and plated at a 1:10 ratio of TurboRFP-expressing PSMD2 shRNA cells/GFP expression control shRNA cells in the absence of Dox. Proteasome inhibitors were added at the specified concentrations and cells were maintained in culture. Cells were allowed to recover in the absence of the proteasome inhibitor and then analyzed by FACS (FIG. 8B, top) or visualized by microscopy (FIG. 8B, bottom). In the absence of proteasome inhibitors, the initial plating ratio of these cells (1:10) was maintained over the duration of the experiment (FIG. 8B). […]
Visualization and FACS analysis of GFP/RFP levels—cells were trypsinized in 100 μL Accumax® solution and further diluted into 100 μl PBSx1. The number of cells with red or areen fluorescent proteins was measured by MACSQuant® VYB according to manufactures protocol. […]

[2] = system: T47D cells with doxycycline inducible PSMD2 KD (Lo19S) versus control cells; experiment: Lo19S T47D drug screen (PSMD2 KD versus control cells, CellTiter-Glo); details: T47D, Lo19S state by dox-inducible PSMD2 shRNA; compound library screen; 72 h; CellTiter-Glo
Protocol: The effect of each drug on viability of cells was calculated by averaging the duplicate experiments. The data is plotted in FIG. 16 as the log2 of the ratio of viability of PSMD2 KD versus control cells (log2 (shPSMD2/Control)). […] The Selleck natural product library (NPC) comprising 502 compounds in 5 doses and the. NIH bioactive compound library that includes 731 compounds in 4 doses were also screened using the same system.
A deeper understanding of the proteasome inhibitor resistant state could yield insights into the molecular mechanisms activated by cells to cope with proteotoxic stress and elucidate new therapeutic strategies for cancer. With these goals in mind, we screened mechanistically diverse small molecule libraries to identify compound sensitivities altered by the Lo19S and Hi-OXPHOS states. An initial screen was conducted in the isogenic T47D model with transient induction of the Lo19S state as described above, We evaluated >4300 mechanistically well-defined compounds within 4 libraries. The compounds included approved cancer drugs (Selleck anti-cancer library: CDL), common natural products (Natural product library: NPC) and an ^-NIH bioactives library (NIH). Each of these compounds was tested at ≥4 concentrations. (Table S5, data not shown), An additional 2866 compounds from the Boston University's Chemical Methodology and Library Development (CMLD-BU) small molecule collection was screened at a single dose (BULL, see Table S5).
(§1) Generation of the Lo19S T47D cell line—For the generation of the T47D Tet-inducible PSMD2 knockdown cell line—the TRIPZ vector with an inducible shRNA targeting PSMD2 was purchased from Dharmacon (clone V3THS_403760). It was introduced to the T47D cells according to manufactures protocol and cells were selected with puromycin 1 g/ml for one week. The cells were exposed to doxycycline for 24 hours and cells were FACS sorted for the top 10% of most RFP expressing cells (highest expression of shRNA). The cells were further cultured in the absence of doxycycline and PSMD2 knockdown was induced as specified in the text.
After 48 hours the cells were collected counted and plated (in the absence of dox) at 1000 cells/well in 384-well opaque, white assay plates (Coming, NY), 50 uL per well, and incubated overnight at 37° C./5% CO2. Compound stocks from the Cancer drug library containing 349 bioactive compounds that were arrayed in dose 10 nM, 100 nM, 1 uM, 10 uM (Selleck anti-cancer compound library L3000), the natural products library containing 502 compounds that were utilized in 5 doses (dilution of 1:1000 of 2ug/ml, 0.2 ug/ml, 0.002/ug/ml, 0.0002 ug/ml), the NIH bioactive library including 731 drugs in dose of 10 nM, 100 nM, 1 uM, 10 uM and the Boston University's CMLD (Chemical Methodology and Library Development) compound deck containing 2866 compounds in one dose (10 uM), including novel chemotypes that uniquely probe three-dimensional space by employing stereochemical and positional variation within the molecular framework as diversity elements in library design. 50 nl of compounds were pin-transferred (V&P Scientific, CA, pin tool mounted onto Tecan Freedom Evo 150 MCA96 head, Tecan, Calif.) into duplicate assay plates and incubated for 72 h. The DMSO content was 0.1% within each well, Per plate, there are 32 wells of DMSO vehicle control and 32 wells of positive control compounds. After three days of incubation, 10 uL of CellTiter-Glo (Promega, Wis.) was added to each well, incubated for 10 minutes and the luminescence output was read on the M1000 Infinite Pro plate reader (Tecan, Calif.).

T47D cells [3] = experiment: The glucose/galactose drug screen; details: for relative viability change of cells grown in glucose versus galactose: 10 mM Glucose or Galactose, Selleck anti cancer and natural product libraries
Protocol: We conducted a second set of drug screens to identify unique sensitivities conferred by the Hi-OXPHOS state using parental T47D breast cancer cells (without 19S subunit suppression). For this screen, we used the NPC and CDL libraries as they contained the greatest number of hits in the Lo19S screen. We tested over 800 compounds at multiple concentrations and measured their effects on relative cell growth/viability when cells were grown under aerobic glycolysis conditions (glucose-supplemented medium) or forced mitochondrial respiration conditions (galactose-supplemented medium).
The glucose/galactose drug screen—T47D cells growing in regular media were collected counted and after centrifugation cells were re-suspended in RPM1 media without glucose containing 10% dialyzed serum with the addition of either 10 mM glucose or 10 mM galactose, Cells were then plated at 1000 cells/well in 384-well opaque, white assay plates (Coming, N.Y.), 50 uL per well, and incubated overnight at 37°C./5% CO2. Application of the drug libraries and cell viability was executed as described above for the Lo19S drug screen.

[4] = system: IMR32 (reduced PSMD5) and Kelly neuroblastoma cells; experiment: Viability of IMR32 versus Kelly neuroblastoma cells (CellTiter-Glo); details: other experiments, e.g., 0.1 uM
[5] = system: IMR32 (reduced PSMD5) and Kelly neuroblastoma cells; experiment: as above; details: 72 hours after addition; CellTiter-Glo
Protocol: To determine whether these compounds also differentially affect cells with reduced expression of PSDMS, IMR32 and Kelly cells were each cultured in the presence of ABT-263, disulfiram, or elesclomol across a range of concentrations. Cell viability was measured by CellTiter-Glo® Luminescent Cell Viability Assay 72 hours after addition of the compound to cells. The fold viability relative to culture in the absence of the compound was determined for each cell line. […] In the experiment shown in FIG. 24, the lowest lower concentration of ABT-263 and disulfiram tested was 1 uM.
ABT-263 targets several members of the BCL2 family, including BCL2 and BCL-XL.

T47D cells [6] = experiment: Drug library screen (Selleck anti-cancer, NPC, NIH bioactive), PSMD2 KD vs control T47D cells
Protocol: Schematic representation of the drug screen setup. (FIG. 37A) 147D cells harboring a doxycycline-inducible PSMD2 shRNA were grown in the presence or absence of doxycycline for 48 hr. Cells were then collected, washed, and plated in the absence of doxycycline for 24 hr prior to exposure different compounds. Relative cell numbers were measured 3 days later.
The relative viability of the Lo19S versus control cells was calculated for replica experiments and the log2 of the ratio is plotted. […] The relative viability of the respiring cells (Hi-OXPHOS) (gal) versus the control cells (glu) was calculated for replica experiments and the log2 of the ratio is plotted.
After 48 hours the cells were collected, counted, and plated at 1000 cells/well in 384 well plates in duplicates for each cell line. Compounds from the Selleck Chemicals anti-cancer compound library (349 drugs in 4 concentrations; […]) were pinned the next day and viability was measured after 72 hours by the reduction of Resazurin (Ex=530 run, Em=590nin). (See FIG. 37A for schematic of screen.)

T47D cells [7] = experiment: Cell viability, T47D cells with doxycycline-inducible PSMD2 shRNA (KD) vs control; details: T47D, transient PSMD2 reduction
Protocol: FIGS. 37A-37E: Subunit suppression results in highly specific drug sensitivity alteration. Schematic representation of the drug screen setup. (FIG. 37A) 147D cells harboring a doxycycline-inducible PSMD2 shRNA were grown in the presence or absence of doxycycline for 48 hr. Cells were then collected, washed, and plated in the absence of doxycycline for 24 hr prior to exposure different compounds. Relative cell numbers were measured 3 days later. […] (FIGS. 37C-37E) The relative viability of the PSMD2 knockdown (KD) versus the control was calculated for replica experiments and the log2 of the ratio is plotted for 349 compounds from the Selleck anti-cancer L3000 drug library that were tested in 4 concentrations (FIG. 37C), the Selleck natural product library (NPC) comprising 502 compounds in 5 doses (FIG. 37D), and the NIH bioactive compound library that includes 731 compounds in 4 doses (FIG. 37E). Specific compounds are annotated.
The effect of transient PSMD2 reduction on growth of T47D cells in the presence of different proteasome inhibitors (bortezomib, MLN9708, carfilzomib, oprozornib) was tested. T47D cells harboring a doxycycline inducible control shRNA (GFP) or a doxycycline-inducible PSMD2 shRNA (TurhoRFP) were incubated with doxycycline for 3 days. Cells were then split and grown in the absence of Dox and proteasome inhibitors were then added at various concentrations. Cells were maintained in culture and then counted.
as §1, with “For” for “Generation of the Lo19S T47D cell line—For”, “line- the” for “line—the”, “Dhannacon” for “Dharmacon”, “μg/ml” for “g/ml”, “relevant Examples. The TRIPZ control GFP vector was created by removing the turboRFP from the TRIPZ control vector by digestion with Agel and ClaI and replacing it with GFP amplified with primers flanking with Agel and Clal restriction sites.” for “text.”
Cell Viability Assay—Relative cell growth and survival were measured in 96-well microplate format in the shRNA experiments and in 384 well format in the drug toxicity assays, by using the fluorescent detection of resazurin dye reduction as an endpoint (544 nm excitation and 590 run emission). 2,500 cells in 96 wells format or 1,000 cells in 384 well format were plated 24 hours before compound exposure (for 72 hours or indicated time). Each analysis was performed at least with three replicas.

Compound | shift of surviving population toward PSMD2 shRNA cells (T47D cells [1]) | viability of PSMD2 KD versus control cells (log2 (shPSMD2/Control)) [2] | relative viability change of cells grown in glucose versus galactose (T47D cells [3]) | toxicity at lower concentrations than 1 uM [4] | number of concentrations at which respiring cells were preferentially targeted (T47D cells [3]; galactose versus glucose) | sensitivity of IMR32 cells relative to Kelly cells (fold viability) [5] | sensitivity of proteasome inhibitor resistant cancer cells vs sensitive counterpart cells (T47D cells [6]) | growth inhibition of T47D cells with reduced level of PSMD2 vs control T47D cells (T47D cells [6]; Selleck anti-cancer compound library screen) | resistance of cells harboring PSMD2 shRNA vs parental line (EC50) (T47D cells [7])
CC(C)C[C@H](NC(=O)CNC(=O)c1cc(Cl)ccc1Cl)B(O)O [MLN2238] | substantially shifted the populations of surviving cells | selectively reduce viability of control cells versus PSMD2 KD cells | strongest hits in this screen |  |  |  |  |  | 
CCN(CC)C(=S)SSC(=S)N(CC)CC [disulfiram, tetraethylthiuram disulfide] |  | selectively reduce the viability of PSMD2 KD cells versus control cells; also recorded: selectively sensitized cells; also recorded: highly effective in slowing the growth of cells in the Lo19S state | cells that respire are predominantly sensitive; also recorded: preferentially targeted respiring cells; also recorded: more potent in cells in the Hi-OXPHOS state | a similar level of toxicity was observed | 4 concentrations | dramatically more sensitive | highly sensitive | selectively inhibit growth | 
COC[C@H](NC(=O)c1cnc(C)s1)C(=O)N[C@@H](COC)C(=O)N[C@@H](Cc1ccccc1)C(=O)[C@@]1(C)CO1 [oprozomib] | substantially shifted the populations of surviving cells |  |  |  |  |  |  |  | EC50 values increased considerably
